The results in this text go back to the NIST ThermoML archive (doi:10.1016/j.jct.2013.08.020).

For series [1] the following is noted: Liquid; for vapor or sublimation pressure: Ebulliometric method (Recirculating still).
Series [2] in a line: refractive index (Na D-line) (dimensionless). The settings on record: 298.15 K; 101 kPa; Liquid; Standard Abbe refractometry.

± gives the expanded uncertainty stated by the source.

As to `CCO` [ethanol], in series [1] (351.45 K), the “vapor or sublimation pressure” value was 101.3 ± 0.5 kPa. In series [2], the refractive index was found to be 1.35924 ± 0.00032.

For the compound `OCCCO` [propan-1,3-diol], the mass density in series [1] (298.15 K, 101 kPa, Vibrating tube method) is recorded as 1049.68 ± 0.27 kg/m3. For the same compound, the refractive index in series [2] amounted to 1.43851 ± 0.00037.

With `O` [water], the “vapor or sublimation pressure” value in series [1] (373.15 K) worked out at 101.3 ± 0.5 kPa. In addition, the refractive index in series [2] is 1.33237 ± 0.00032.

By vapor or sublimation pressure is commonly meant the pressure of vapour in equilibrium with the condensed phase. By refractive index is commonly meant a measure of how strongly the sample bends light. For orientation: mass density means mass per unit of volume.
